Marks after values point to notes of the source that are not given here. *1 amine or outer side, *2 acyl side, *3 side chain or, on linkers, in order; H or OH if unused. Where no end group is shown, it is not given here. Suc = O=C(CCC(=O)[*:2])[*:1]
Key:
[1] = test system: Aβ induced oxidative stress in the rat brain; assay: Oxidative stress markers (MDA, GSH, SOD) in brains of Aβ treated non-diabetic and diabetic rats; type: in vivo, Sprague-Dawley rats; conditions: for Brain malondialdehyde (MDA) level: IRL-1620 3 μg i.c.v. daily 14 days
Method: Male Sprague-Dawley rats (Harlan, Indianapolis, Ind.) weighing 280-310 g were allowed to acclimate for at least 4 days before use. Animals were housed in a room with controlled temperature (23±1° C.), humidity (50±10%), and light (6:00 A.M. to 6:00 P.M.). Food and water were available continuously. Animal care and use for experimental procedures were approved by the Institutional Animal Care and Use Committee (IACUC) of Midwestern University. All anesthetic and surgical procedures were in compliance with the guidelines established by the IACUC of Midwestern University.
Amyloid-β (1-40) (Tocris Bioscience, Ellisville, Mo., USA), IRL-1620 [N-Succinyl-[Glu9, Ala11,15] endothelin 1] (American Peptide Co, Inc., Sunnyvale, Calif., USA) and BQ788 (American Peptide Co, Inc., Sunnyvale, Calif., USA) were dissolved in sterile saline and all the solutions were freshly prepared before injections. Ketamine (Butler Animal Health Supply, Dublin, Ohio, USA) was administered at a dose of 100 mg/kg, intraperitoneally (i.p.), and xylazine (Lloyd Laboratories, Shenandoah, Iowa, USA) was administered at a dose of 10 mg/kg, i.p. Rats were anesthetized with ketamine (100 mg/kg) and xylazine (10 mg/kg) and a lateral cerebral ventricle was cannulated by placing the rat in a stereotaxic (David Kopf Instruments, Tujunga, Calif., USA) instrument and fixing the cannula (coordinates: 1.0 mm lateral, 1.5 mm caudal to bregma and 4.0 mm deep from the bone). Cannula (Plastics One, Roanoke, Va., USA) was anchored with dental acrylic to three screws placed in the skull. The animals were allowed to recover from surgery for at least seven days. After 7 days, rats were treated with vehicle, Aβ (1-40), ETB receptor agonist and/or antagonist in the lateral cerebral ventricles using the implanted cannula. Vehicle, Aβ or ETB receptor agonist and antagonist were injected in a volume of 5 μl over a period of 5 minutes. Aβ (1-40) was used because it is highly soluble compared to Aβ (1-42) and induces endothelial dysfunction of both cerebral and systemic blood vessels in addition to memory deficit (Nitta et al., 1994; Niwa et al., 2000; Smith et al., 2004; Weller et al., 1998). Agents were delivered using 10 μl Hamilton syringe and agent treatments were carried out individually using separate 10 μl syringe. IRL-1620 was administered 1 hour after Aβ injection whereas BQ788 was administered 15 minutes prior to IRL-1620 injection. At the end of the experiment, placement of cannula was confirmed by injecting methylene blue dye (5 μl) and observing the site and extent of staining. All experiments were performed on day 15 (Briyal et al., 2011). Water maze testing was performed from day 15 to day 19 after which animals were euthanized. Animals used for oxidative stress measurements were euthanized on day 15 without being subjected to any behavioral testing. Diabetes mellitus type 2 was induced in rats belonging to the diabetic group by administering freshly prepared streptozotocin at the dose of 45 mg/kg, i.p. Streptozotocin was dissolved in 0.01 M sodium citrate buffer of pH 4.3. On day 3, blood glucose was obtained from the rat-tail and tested for hyperglycemia using the SureStep Complete Blood Glucose monitor kit. Rats with blood glucose levels above 11.1 mM were considered diabetic. Diabetic and non-diabetic animals were randomly divided into five groups (6 rats per group) (i) Sham, (ii) Aβ+Vehicle, (iii) Aβ+IRL-1620, (iv) Aβ+BQ788 (v) Aβ+BQ788+IRL-1620. Aβ (1-40) was administered intracerebroventricularly (i.c.v.) (20 μg in 3 equally divided doses i.e. 6.67 μg were injected 3 times for a total of 20 μg dose) on day 1, 7, and 14. Specific ETB receptor agonist, IRL-1620 (3 μg) and specific ETB receptor antagonist, BQ788 (10 μg) were administered i.c.v. daily for 14 days starting from day 1 of Aβ injection. The doses of IRL-1620 and BQ788 were selected on the basis of previous studies conducted in our laboratory (Leonard et al., 2011). […]

[2] = test system: middle cerebral artery occluded rats; assay: Neurological deficit and motor function post middle cerebral artery occlusion; type: in vivo; conditions: for Distance Traveled (cm) / Foot Fault Error (%) / Grip Test (6 point scale) / Neurological Evaluation (6 point scale) / Rota Rod Duration / Vertical Breaks: MCAO rats
Method: Effect of IRL-1620 on neurological deficit following focal cerebral ischemia: In a preliminary study, the effect of selectively activating ETB receptors by IRL-1620 following permanent middle cerebral artery occlusion in rats was determined.

[3] = Aβ treated diabetic rats, day 15
[4] = Aβ treated non-diabetic rats, day 15

Compound: CCCC[C@@H](NC(=O)[C@@H](Cc1cn(C(=O)OC)c2ccccc12)NC(=O)[C@H](CC(C)(C)C)NC(=O)N1[C@H](C)CCC[C@@H]1C)C(=O)O [BQ788, reference compound]
- Brain superoxide dismutase (SOD) level ([1]; Aβ treated diabetic rats, pretreated with BQ788 prior to IRL-1620): 16.52±0.45 U/mg protein
- Brain superoxide dismutase (SOD) level ([1]; Aβ treated non-diabetic rats, pretreated with BQ788 prior to IRL-1620): 15.32±0.44 U/mg protein
- IRL-1620 induced change in MDA levels ([1]; Aβ treated rats, BQ788 administered prior to IRL-1620): blocked
- Brain reduced glutathione (GSH) level ([1]; Aβ treated rats, pretreatment with BQ788 before IRL-1620, diabetic status not stated): 81.2±5.49 μg/g wet tissue
- Distance Traveled (cm) ([2]; Baseline): 5141 ± 285 cm
- Foot Fault Error (%) ([2]; Baseline): 5.96 ± 1.75%
- Grip Test (6 point scale) ([2]; Baseline): 3.33 ± 0.33
- Neurological Evaluation (6 point scale) ([2]; Baseline): 0 ± 0
- Rota Rod Duration ([2]; Baseline): 102.00 ± 5.14 s
- Vertical Breaks ([2]; Baseline): 55.17 ± 3.74
- Distance Traveled (cm) ([2]; Day 1): 1168 ± 417 cm
- Foot Fault Error (%) ([2]; Day 1): 52.12 ± 11.93*^@ %
- Grip Test (6 point scale) ([2]; Day 1): 0.67 ± 0.33*^@
- Neurological Evaluation (6 point scale) ([2]; Day 1): 3.00 ± 0.58*^@
- Rota Rod Duration ([2]; Day 1): 37.83 ± 20.87 s
- Vertical Breaks ([2]; Day 1): 5.33 ± 2.47
- Distance Traveled (cm) ([2]; Day 4): 1246 ± 410 cm
- Foot Fault Error (%) ([2]; Day 4): 68.89 ± 12.27*^@ %
- Grip Test (6 point scale) ([2]; Day 4): 0.33 ± 0.24
- Neurological Evaluation (6 point scale) ([2]; Day 4): 3.33 ± 0.62*^@
- Rota Rod Duration ([2]; Day 4): 37.67 ± 14.92 s
- Vertical Breaks ([2]; Day 4): 4.33 ± 1.52
- Distance Traveled (cm) ([2]; Day 7): 2280 ± 836 cm
- Foot Fault Error (%) ([2]; Day 7): 75.00 ± 17.67*^@ %
- Grip Test (6 point scale) ([2]; Day 7): 1.67 ± 0.62
- Neurological Evaluation (6 point scale) ([2]; Day 7): 3.00 ± 0.82*^@
- Rota Rod Duration ([2]; Day 7): 49.67 ± 17.56 s
- Vertical Breaks ([2]; Day 7): 11.00 ± 3.97

Compound: Suc-Asp-Glu-Glu-Ala-Val-Tyr-Phe-Ala-His-Leu-Asp-Ile-Ile-Trp (Suc-DEEAVYFAHLDIIW) [IRL-1620]
- Brain malondialdehyde (MDA) level [1, 3]: 315.09±5.25 nmol/g wet tissue
- Brain reduced glutathione (GSH) level [1, 3]: 166.42±6.63 μg/g wet tissue
- Brain superoxide dismutase (SOD) level [1, 3]: 21.4±1.65 U/mg protein
- Brain malondialdehyde (MDA) level [1, 4]: 278.47±8.55 nmol/g wet tissue
- Brain reduced glutathione (GSH) level [1, 4]: 192.74±6.26 μg/g wet tissue
- Brain superoxide dismutase (SOD) level [1, 4]: 22.26±1.16 U/mg protein
- Distance Traveled (cm) ([2]; Baseline): 5073 ± 334 cm
- Foot Fault Error (%) ([2]; Baseline): 4.05 ± 1.31%
- Grip Test (6 point scale) ([2]; Baseline): 3.86 ± 0.46
- Neurological Evaluation (6 point scale) ([2]; Baseline): 0 ± 0
- Rota Rod Duration ([2]; Baseline): 113.29 ± 8.34 s
- Vertical Breaks ([2]; Baseline): 61.50 ± 4.94
- Distance Traveled (cm) ([2]; Day 1): 1611 ± 325 cm
- Foot Fault Error (%) ([2]; Day 1): 18.85 ± 6.48 %
- Grip Test (6 point scale) ([2]; Day 1): 2.71 ± 0.52
- Neurological Evaluation (6 point scale) ([2]; Day 1): 1.29 ± 0.36
- Rota Rod Duration ([2]; Day 1): 78.71 ± 22.59 s
- Vertical Breaks ([2]; Day 1): 12.75 ± 4.76
- Distance Traveled (cm) ([2]; Day 4): 2898 ± 451 cm
- Foot Fault Error (%) ([2]; Day 4): 14.00 ± 3.66 %
- Grip Test (6 point scale) ([2]; Day 4): 2.33 ± 0.58
- Neurological Evaluation (6 point scale) ([2]; Day 4): 0.67 ± 0.22
- Rota Rod Duration ([2]; Day 4): 97.33 ± 2.08 s
- Vertical Breaks ([2]; Day 4): 26.33 ± 2.08
- Distance Traveled (cm) ([2]; Day 7): 3472 ± 732 cm
- Foot Fault Error (%) ([2]; Day 7): 8.28 ± 1.09 %
- Grip Test (6 point scale) ([2]; Day 7): 3.33 ± 0.22
- Neurological Evaluation (6 point scale) ([2]; Day 7): 0.67 ± 0.22
- Rota Rod Duration ([2]; Day 7): 123.67 ± 7.28 s
- Vertical Breaks ([2]; Day 7): 34.33 ± 3.78
- Neurological and motor function tests ([2]; preliminary study, 24 hours after permanent MCAO, vs vehicle-treated): significant improvement

— patent US10561704B2, “Compositions and methods for treating neuropsychiatric disorders using an endothelin-B receptor agonist” (MIDWESTERN UNIVERSITY, priority 2013, dated 2020)
